Experimental data published in patent publication US10793514B2, “Glutamine transport inhibitors and methods for treating cancer” (Vanderbilt University, priority 2016, dated 2020).

Experiments:
ASCT1 (SLC1A4) = ASCT1 (SLC1A4) (Mus musculus (Mouse), UniProt O35874); assay: Drug Affinity Responsive Target Stability (DARTS) assay, ASCT1; assay type: binding; settings: thermolysin
Protocol: DARTS was carried out as previously described^15 using T-REx-293 cells with tetracycline-inducible expression of ASCT2 or lysate from 115 mg of homogenized mouse brain for ASCT1. […] Lysates were then incubated at room temperature with the protease Thermolysin (1:100 and 1:200 total enzyme to total substrate) for 30 min. ASCT2 was measured by immunoblotting (ASCT2 antibody: Millipore ABN73; ASCT1 antibody: Cell Signaling 8442).

[1] = V-9302 concentration in whole blood with time; assay type: in vivo, mouse; settings: single dose 75 mg/kg, healthy mice
Protocol: Liquid chromatography-tandem mass spectroscopy (LC-MS/MS) analyses were performed via reverse phase chromatography using a Shimadzu Nexera X2 UPLC (Columbia, Md.) coupled with a QTrap® 5500 (Sciex, Framinghman, MA, USA). […] Blank samples were made using fresh whole blood applied to Mitra® Microsamplers and allowed to dry for at least 24 h. All data were collected using Sciex Analyst 1.6.2 software and analyzed with MultiQuant 3.0 software. Error is reported as standard deviation (SD).

[2] = tested on: patient-derived xenograft (PDX) tumor A-008; assay: Patient-derived xenograft chronic exposure study; assay type: in vivo, mouse; settings: 75 mg/kg daily, 31 days; vs vehicle
Protocol: For in vivo studies, cell-line xenograft tumors were propagated in 6-week old, female athymic nude mice from immortalized cell lines. For HCC-1806 (10×10^6 cells), HCT-116 (5×10^6), and HT29 (10×10^6) cells were injected. Palpable tumors were typically visible within 2-3 weeks. For imaging studies (HCC-1806), tumors were propagated to approximately 500 mm^3. For treatment studies (HCT-116, HT29) tumors were propagated to approximately 200 mm^3 prior to therapy and were randomly assigned into treated and untreated cohorts. For generating the PDX, primary tumor tissue was obtained form a patient at Vanderbilt University Medical Center under an IRB approved protocol. The tumor tissue was genotyped within the VANTAGE core facility. Xenograft was generated as previously described 41. Briefly, tumor tissues were sectioned into approximately 125 cubic millimeter pieces then implanted subcutaneously without further manipulation. […] Tumor volumes were measured manually using calipers every third day and quantified using the formula V=W·L·(H/2).

HT29 and HCT-116 cells = assay: Cell viability with or without chloroquine; assay type: cell-based, human; settings: combined with chloroquine (10 μM), 48 h
Protocol: Viability was evaluated using a commercially available chemiluminescent reagents (CellTiter-Glo, Promega Corp. G7572; MultiTox Glo, Promega Corp. G9270) in 96-well plate format according to the manufacturers protocol. […] Subsequently, CellTiter-Glo reagent was added and the plates were read using a plate reader (BioTek Synergy 4) with standard settings. Each set of conditions was replicated at least three times, technically and biologically. Error is reported as standard deviation (SD). The sulforhodamine B assay was run analogously to the above assays as previously described^19.

ASCT1 (SLC1A4), sequence (O35874 whole entry): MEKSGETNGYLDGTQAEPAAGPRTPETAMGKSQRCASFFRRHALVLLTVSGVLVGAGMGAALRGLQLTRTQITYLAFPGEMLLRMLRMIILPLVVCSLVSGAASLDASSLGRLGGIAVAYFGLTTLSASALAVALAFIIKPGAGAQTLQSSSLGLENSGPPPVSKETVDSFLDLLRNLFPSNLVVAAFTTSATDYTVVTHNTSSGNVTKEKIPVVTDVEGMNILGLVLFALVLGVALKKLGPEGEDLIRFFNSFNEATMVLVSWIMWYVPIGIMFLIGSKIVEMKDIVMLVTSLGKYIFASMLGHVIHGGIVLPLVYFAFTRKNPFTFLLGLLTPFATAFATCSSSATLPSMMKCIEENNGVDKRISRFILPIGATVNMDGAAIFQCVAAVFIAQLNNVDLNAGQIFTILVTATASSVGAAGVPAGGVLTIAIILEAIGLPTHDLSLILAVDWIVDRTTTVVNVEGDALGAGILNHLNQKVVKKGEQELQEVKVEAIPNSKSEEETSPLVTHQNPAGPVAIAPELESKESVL

stabilization of ASCT1 (ASCT1 (SLC1A4)): not stabilized
half-life ([1]; mouse, whole blood): ~6 h
time to steady-state whole blood concentration [1]: 4 h
Compound: Cc1cccc(COc2ccccc2CN(CCC(N)C(=O)O)Cc2ccccc2OCc2cccc(C)c2)c1 (centres unmarked) [Compound V-9302]
tumor volume [2]: reduction in tumor volume
cell viability, combination (HT29 and HCT-116 cells): further decreased cell viability
